Measured values taken from patent US20170000749A1, “Methods for Treating Cognitive Disorders Using Inhibitors of Histone Deacetylase” (Forum Pharmaceuticals, Inc., priority 2008, published 2017).
Like-named read-outs stand apart in the source and are kept apart here. One block for each molecule: values may come before it.

What was measured:
[1] = target: one or more of HDAC-1, HDAC-2, HDAC-3, HDAC-4, HDAC-5, HDAC-6, HDAC-7, HDAC-8, HDAC-9, HDAC-10 and HDAC-11; test: Inhibition of Histone Deacetylase Enzymatic Activity (Boc-Lys(Ac)-AMC substrate, Fluor-de-Lys developer); assay type: biochemical; conditions: read-out: HDAC Inhibition (IC50 μM) HDAC Enzyme
Description: The following protocol is used to assay the compounds of the disclosure.
The mixture is pre-incubated for 5 minutes at room temperature. The reaction is started by bringing the temperature to 37° C. and adding 16 μl substrate. Total reaction volume is 50 μl.
In the Tables 8, 9 and 10, A≦0.05 μM; 0.05 μM<B≦0.1 μM; 0.1 μM<C≦1 μM; and 1 μM<D≦10 μM.

[2] = test system: HDAC activity in primary mouse cortical cultures; test: Whole-Cell Histone Deacetylase (HDAC) Inhibition Assay in Primary Mouse Cortical Cultures; assay type: cell-based
Summary of the method: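 Primary neocortical neurons from E17 Balb/C mouse embryos were plated at 50000 cells/well and treated at DIV9 with ten-point DMSO dilutions for 16-18 h at 37° C, in triplicate. BOC-Lys(Ac)-AMC substrate was then added for 1 h. Fluor de Lys developer containing 1 uM TSA produced a fluorophore, which was read.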

[3] = whole-cell (WC), mouse cortical neurons, Table 10, read-out: HDAC Inhibition (IC50 μM) WC mouse cortical neurons
[4] = whole-cell (WC), mouse cortical neurons, Table 9, read-out: HDAC Inhibition (IC50 μM) WC mouse cortical neurons
[5] = whole-cell (WC), mouse cortical neurons, Table 8, read-out: HDAC Inhibition (IC50 μM) WC mouse cortical neurons
[6] = read-out: HDAC Inhibition (IC50 μM) WC mouse cortical neurons, Table 10

- IC50 ([1]; Table 10): 0.1 to 1 µM
- IC50 [2, 3]: > 15 µM
Structure (SMILES): O=C(CCCCCCN1Cc2ccccc2Oc2ccccc21)NO [7-(dibenzo[b,f][1,4]oxazepin-10(11H)-yl)-N-hydroxyheptanamide]

- IC50 ([1]; Table 10): 0.1 to 1 µM
- IC50 [2, 3]: < 1 µM
Structure (SMILES): O=C(CCCCCCCN1C(=O)c2cccnc2N(C2CC2)c2ccccc21)NO [8-(11-cyclopropyl-5-oxo-5H-benzo[b]pyrido[2,3-e][1,4]diazepin-6(11H)-yl)-N-hydroxyoctanamide]

- IC50 ([1]; Table 10): 0.1 to 1 µM
- IC50 [2, 3]: 1 to 5 µM
Structure (SMILES): O=C(CCCCCCC(=O)N1Cc2ccccc2Oc2ccccc21)NO [8-(dibenzo[b,f][1,4]oxazepin-10(11H)-yl)-N-hydroxy-8-oxooctanamide]

- IC50 ([1]; Table 9): < 0.05 µM
- IC50 [2, 4]: < 1 µM
Structure (SMILES): O=C(NO)c1cnc(N2C[C@@H]3C[C@H]2CN3C(=O)OCc2ccccc2)nc1 [(1S,4S)-benzyl 5-(5-(hydroxycarbamoyl)pyrimidin-2-yl)-2,5-diazabicyclo[2.2.1]heptane-2-carboxylate]

- IC50 ([1]; Table 9): < 0.05 µM
- IC50 [2, 4]: < 1 µM
Structure (SMILES): O=C(NO)c1cnc(N2C[C@@H]3C[C@H]2CN3C(=O)OC2CCCC2)nc1 [(1S,4S)-cyclopentyl 5-(5-(hydroxycarbamoyl)pyrimidin-2-yl)-2,5-diazabicyclo[2.2.1]heptane-2-carboxylate]

- IC50 ([1]; Table 9): < 0.05 µM
- IC50 [2, 4]: < 1 µM
Structure (SMILES): O=C(NO)c1cnc(N2C[C@@H]3C[C@H]2CN3C(=O)OCC2CC2)nc1 [(1S,4S)-cyclopropylmethyl 5-(5-(hydroxycarbamoyl)pyrimidin-2-yl)-2,5-diazabicyclo[2.2.1]heptane-2-carboxylate]

- IC50 ([1]; Table 9): < 0.05 µM
- IC50 [2, 4]: < 1 µM
Structure (SMILES): CC(C)COC(=O)N1C[C@@H]2C[C@H]1CN2c1ncc(C(=O)NO)cn1 [(1S,4S)-isobutyl 5-(5-(hydroxycarbamoyl)pyrimidin-2-yl)-2,5-diazabicyclo[2.2.1]heptane-2-carboxylate]

- IC50 ([1]; Table 9): < 0.05 µM
- IC50 [2, 4]: < 1 µM
Structure (SMILES): CC(C)OC(=O)N1C[C@@H]2C[C@H]1CN2c1ncc(C(=O)NO)cn1 [(1S,4S)-isopropyl 5-(5-(hydroxycarbamoyl)pyrimidin-2-yl)-2,5-diazabicyclo[2.2.1]heptane-2-carboxylate]

- IC50 ([1]; Table 9): < 0.05 µM
- IC50 [2, 4]: < 1 µM
Structure (SMILES): O=C(NO)c1cnc(N2C[C@@H]3C[C@H]2CN3C(=O)OCc2cccnc2)nc1 [(1S,4S)-pyridin-3-ylmethyl 5-(5-(hydroxycarbamoyl)pyrimidin-2-yl)-2,5-diazabicyclo[2.2.1]heptane-2-carboxylate]

- IC50 ([1]; Table 9): < 0.05 µM
- IC50 [2, 4]: < 1 µM
Structure (SMILES): CC(C)(C)OC(=O)N1C[C@@H]2C[C@H]1CN2c1ncc(C(=O)NO)cn1 [(1S,4S)-tert-butyl 5-(5-(hydroxycarbamoyl)pyrimidin-2-yl)-2,5-diazabicyclo[2.2.1]heptane-2-carboxylate]

- IC50 ([1]; Table 9): < 0.05 µM
- IC50 [2, 4]: < 1 µM
Structure (SMILES): O=C(NO)c1cnc(N2C[C@@H]3C[C@H]2CN3C(=O)OC2CCOCC2)nc1 [(1S,4S)-tetrahydro-2H-pyran-4-yl 5-(5-(hydroxycarbamoyl)pyrimidin-2-yl)-2,5-diazabicyclo[2.2.1]heptane-2-carboxylate]

- IC50 ([1]; Table 8): < 0.05 µM
- IC50 [2, 5]: 5 to 15 µM
Structure (SMILES): O=C(NO)c1cnc(N2CCN(C3=Nc4ccccc4Oc4ccc(Cl)cc43)CC2)nc1 [(E)-2-(4-(2-chlorodibenzo[b,f][1,4]oxazepin-11-yl)piperazin-1-yl)-N-hydroxypyrimidine-5-carboxamide]

- IC50 ([1]; Table 10): < 0.05 µM
- IC50 [2, 3]: < 1 µM
Structure (SMILES): O=C(/C=C/c1ccc(CN2C(=O)c3cccnc3N(C3CC3)c3ccccc32)cc1)NO [(E)-3-(4-((11-cyclopropyl-5-oxo-5H-benzo[b]pyrido[2,3-e][1,4]diazepin-6(11H)-yl)methyl)phenyl)-N-hydroxyacrylamide]

- IC50 ([1]; Table 10): 0.05 to 0.1 µM
- IC50 [2, 3]: 1 to 5 µM
Structure (SMILES): O=C(/C=C/c1ccc(CN2c3ccccc3C=Cc3ccccc32)cc1)NO [(E)-3-(4-(((Z)-5H-dibenzo[b,f]azepin-5-yl)methyl)phenyl)-N-hydroxyacrylamide]

- IC50 ([1]; Table 10): 0.1 to 1 µM
- IC50 [2, 3]: 5 to 15 µM
Structure (SMILES): O=C(/C=C/c1ccc2c(c1)C=Cc1ccccc1N2CC1CC1)NO [(E)-3-((Z)-5-(cyclopropylmethyl)-5H-dibenzo[b,f]azepin-2-yl)-N-hydroxyacrylamide]

- IC50 ([1]; Table 8): 0.1 to 1 µM
- IC50 [2, 5]: 5 to 15 µM
Structure (SMILES): O=C(NO)c1ccc(CCNC2=Nc3ccccc3Oc3ccccc32)cc1 [(E)-4-(2-(dibenzo[b,f][1,4]oxazepin-11-ylamino)ethyl)-N-hydroxybenzamide]

- IC50 ([1]; Table 8): 0.1 to 1 µM
- IC50 [2, 5]: 5 to 15 µM
Structure (SMILES): O=C(NO)c1ccc(CNC2=Nc3ccccc3N(C3CC3)c3ccccc32)cc1 [(E)-4-((5-cyclopropyl-5H-dibenzo[b,e][1,4]diazepin-11-ylamino)methyl)-N-hydroxybenzamide]

- IC50 ([1]; Table 8): < 0.05 µM
- IC50 [2, 5]: < 1 µM
Structure (SMILES): O=C(NO)c1ccc(CNC2=Nc3ccccc3Oc3ccccc32)cc1 [(E)-4-((dibenzo[b,f][1,4]oxazepin-11-ylamino)methyl)-N-hydroxybenzamide]

- IC50 ([1]; Table 8): 1 to 10 µM
- IC50 [2, 5]: 5 to 15 µM
Structure (SMILES): O=C(NO)c1ccc(C2=Nc3ccccc3Oc3ccccc32)c(F)c1 [(E)-4-(dibenzo[b,f][1,4]oxazepin-11-yl)-3-fluoro-N-hydroxybenzamide]

- IC50 ([1]; Table 8): 1 to 10 µM
- IC50 [2, 5]: > 15 µM
Structure (SMILES): O=C(NO)c1ccc(C2=Nc3ccccc3Oc3ccccc32)o1 [(E)-5-(dibenzo[b,f][1,4]oxazepin-11-yl)-N-hydroxyfuran-2-carboxamide]

- IC50 ([1]; Table 8): < 0.05 µM
- IC50 [2, 5]: 1 to 5 µM
Structure (SMILES): O=C(NO)c1ccc(C2=Nc3ccccc3Oc3ccccc32)s1 [(E)-5-(dibenzo[b,f][1,4]oxazepin-11-yl)-N-hydroxythiophene-2-carboxamide]

- IC50 ([1]; Table 8): 0.1 to 1 µM
- IC50 [2, 5]: 5 to 15 µM
Structure (SMILES): O=C(NO)c1ccc(C2=Nc3ccccc3Oc3ccccc32)nc1 [(E)-6-(dibenzo[b,f][1,4]oxazepin-11-yl)-N-hydroxynicotinamide]

Structure (SMILES): O=C(/C=C/c1ccc(CN2C(=O)CN=C(c3ccccc3)c3ccccc32)cc1)NO [(E)-N-hydroxy-3-(4-(((Z)-2-oxo-5-phenyl-2,3-dihydro-1H-benzo[e][1,4]diazepin-1-yl)methyl)phenyl)acrylamide]
- IC50 ([1]; Table 10): 0.05 to 0.1 µM
- IC50 [2, 6]: 1 to 5 µM

Structure (SMILES): CN1C(=O)CN=C(c2ccccc2)c2ccc(/C=C/C(=O)NO)cc21 [(E)-N-hydroxy-3-((Z)-1-methyl-2-oxo-5-phenyl-2,3-dihydro-1H-benzo[e][1,4]diazepin-8-yl)acrylamide]
- IC50 ([1]; Table 10): 0.1 to 1 µM
- IC50 [2, 6]: 1 to 5 µM

Structure (SMILES): O=C(/C=C/c1ccc2c(c1)NC(=O)CN=C2c1ccccc1)NO [(E)-N-hydroxy-3-((Z)-2-oxo-5-phenyl-2,3-dihydro-1H-benzo[e][1,4]diazepin-8-yl)acrylamide]
- IC50 ([1]; Table 10): 0.05 to 0.1 µM
- IC50 [2, 6]: 1 to 5 µM

- IC50 ([1]; Table 10): 0.05 to 0.1 µM
- IC50 [2, 3]: < 1 µM
Structure (SMILES): O=C(NO)c1ccc(/C=C/CN2C(=O)c3ccccc3Oc3ccccc32)cc1 [(E)-N-hydroxy-4-(3-(11-oxodibenzo[b,f][1,4]oxazepin-10(11H)-yl)prop-1-enyl)benzamide]

- IC50 ([1]; Table 8): < 0.05 µM
- IC50 [2, 5]: > 15 µM
Structure (SMILES): O=C(NO)c1ccc(-c2ccc3c(c2)C(N2CCOCC2)=Nc2ccccc2O3)cc1 [(E)-N-hydroxy-4-(11-morpholinodibenzo[b,f][1,4]oxazepin-2-yl)benzamide]

- IC50 ([1]; Table 10): 0.1 to 1 µM
- IC50 [2, 3]: 5 to 15 µM
Structure (SMILES): O=C(Cc1ccc(CN2c3ccccc3C=Cc3ccccc32)cc1)NO [(Z)-2-(4-((5H-dibenzo[b,f]azepin-5-yl)methyl)phenyl)-N-hydroxyacetamide]

- IC50 ([1]; Table 8): 0.1 to 1 µM
- IC50 [2, 5]: > 15 µM
Structure (SMILES): O=C(NO)c1cccc(C2=Nc3ccccc3Oc3ccccc32)c1 [(Z)-3-(dibenzo[b,f][1,4]oxazepin-11-yl)-N-hydroxybenzamide]

- IC50 ([1]; Table 8): < 0.05 µM
- IC50 [2, 5]: 5 to 15 µM
Structure (SMILES): O=C(NO)c1ccc(C2=Nc3ccccc3Oc3cccc(F)c32)cc1 [(Z)-4-(1-fluorodibenzo[b,f][1,4]oxazepin-11-yl)-N-hydroxybenzamide]

- IC50 ([1]; Table 8): < 0.05 µM
- IC50 [2, 5]: 5 to 15 µM
Structure (SMILES): O=C(NO)c1ccc(C2=Nc3ccccc3Oc3ccc(Cl)cc32)cc1 [(Z)-4-(2-chlorodibenzo[b,f][1,4]oxazepin-11-yl)-N-hydroxybenzamide]

- IC50 ([1]; Table 8): < 0.05 µM
- IC50 [2, 5]: 1 to 5 µM
Structure (SMILES): COc1cc(F)cc2c1Oc1ccccc1N=C2c1ccc(C(=O)NO)cc1 [(Z)-4-(2-fluoro-4-methoxydibenzo[b,f][1,4]oxazepin-11-yl)-N-hydroxybenzamide]

- IC50 ([1]; Table 8): < 0.05 µM
- IC50 [2, 5]: 1 to 5 µM
Structure (SMILES): O=C(NO)c1ccc(C2=Nc3ccccc3Oc3ccc(F)cc32)cc1 [(Z)-4-(2-fluorodibenzo[b,f][1,4]oxazepin-11-yl)-N-hydroxybenzamide]

- IC50 ([1]; Table 8): 0.1 to 1 µM
- IC50 [2, 5]: > 15 µM
Structure (SMILES): O=C(NO)c1ccc(C2=Nc3ccccc3Oc3cc(F)ccc32)cc1 [(Z)-4-(3-fluorodibenzo[b,f][1,4]oxazepin-11-yl)-N-hydroxybenzamide]

- IC50 ([1]; Table 8): 0.1 to 1 µM
- IC50 [2, 5]: 5 to 15 µM
Structure (SMILES): O=C(NO)c1ccc(C2=Nc3ccccc3Oc3c(F)cccc32)cc1 [(Z)-4-(4-fluorodibenzo[b,f][1,4]oxazepin-11-yl)-N-hydroxybenzamide]

- IC50 ([1]; Table 8): 0.05 to 0.1 µM
- IC50 [2, 5]: 1 to 5 µM
Structure (SMILES): O=C(NO)c1ccc(C2=Nc3ccccc3N(C3CC3)c3ccc(F)cc32)cc1 [(Z)-4-(5-cyclopropyl-2-fluoro-5H-dibenzo[b,e][1,4]diazepin-11-yl)-N-hydroxybenzamide]

- IC50 ([1]; Table 8): 0.1 to 1 µM
- IC50 [2, 5]: 1 to 5 µM
Structure (SMILES): O=C(NO)c1ccc(C2=Nc3ccccc3N(C3CC3)c3ccccc32)cc1 [(Z)-4-(5-cyclopropyl-5H-dibenzo[b,e][1,4]diazepin-11-yl)-N-hydroxybenzamide]
